Consider 6 compounds from patent US5215907A, “Thermostable acid protease from sulfolobus acidocaldarius” (Oklahoma Medical Research Foundation, priority 1992, dated 1993).

Entries after “also recorded” stand apart in the source; their conditions may differ. Numbered stars: 1 amine (or outer) side, 2 acyl side, 3 side chain; on linkers, the order of the positions; unused ones are H or OH. Peptide text beside a SMILES is read from it. CO = O=C([*:1])[*:2]

The target in this assay is T1, thermopsin, thermostable acid protease purified from Sulfolobus acidocaldarius culture medium (Sulfolobus acidocaldarius, UniProt P17118).
T1 construct: The purification of thermopsin, therefore, was carried out using culture media as starting material; endogenous in cells; host or cells: Sulfolobus acidocaldarius (natural producer); enzyme purified in-house from the culture medium, not recombinant
T1 sequence (P17118 42-340): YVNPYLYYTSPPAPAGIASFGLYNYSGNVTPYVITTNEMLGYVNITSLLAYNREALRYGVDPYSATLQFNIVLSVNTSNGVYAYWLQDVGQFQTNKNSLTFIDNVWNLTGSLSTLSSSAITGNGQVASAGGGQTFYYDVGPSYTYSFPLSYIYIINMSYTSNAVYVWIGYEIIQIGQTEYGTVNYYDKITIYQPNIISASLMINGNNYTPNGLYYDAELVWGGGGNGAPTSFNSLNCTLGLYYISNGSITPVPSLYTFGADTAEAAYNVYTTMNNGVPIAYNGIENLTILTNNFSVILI
Kind of assay: Effects of proteinase inhibitors on thermopsin proteolytic activity (14C-methylated hemoglobin assay). As to conditions: no concentration stated; see Table II. In kind it is biochemical. As to the method: Proteolytic activity is routinely assayed using ^14 C-methylated bovine hemoglobin as substrate, as prepared according to the method of Lin, et al., J. Biol. Chem., (1989, in press). The assay mixture, containing 0.51% hemoglobin substrate and thermopsin in 0.1 ml of 0.1M sodium formate, pH 3.2, is placed in an Eppendorf tube. After incubation at 80° C. for a period of time between 5 to 30 min, depending on the level of activity of thermopsin used, an aliquot of 0.1 ml of 10% trichloracetic acid is added to stop the reaction and precipitate the protein. After removal of the precipitate by centrifugation, the radioactivity of an aliquot of the clear supernate is determined in a scintillation counter.
The effect of various protease inhibitors on the activity of thermopsin was tested.
Thermopsin is preincubated with the indicated level of inhibitor in 0.1 M
phosphate buffer, pH 6.0, containing 1 mM EDTA and DTT at 37° C.
for 5 min. Sodium formate (pH 3.2) and ^14 CHemoglobin is then added
to a concentration as described above. The enzyme assay is then carried
out at 80° C. for 15 min. Enzyme activity is expressed as percent
For the compound `CCCCC(NC(=O)C=[N+]=[N-])C(=O)OC` (racemic) [DAN, diazoacetyl-DL-norleucinemethlyester], the “effect of inhibitor on thermopsin activity (in words)” value is “not inactivated; also recorded: no effect”.
The result for `CC(C)[C@H](NC(=O)[C@H](CCCNC(=N)N)NC(=O)N[C@@H](Cc1ccccc1)C(=O)O)C(=O)N[C@H](C=O)CCCNC(=N)N` [Antipain, antipain] ({Phe-CO}-Arg-Val-Arg-aldehyde) reads “inhibited; also recorded: significant inhibition”; that for `CCN1C(=O)C=CC1=O` [N-ethylmaleimide], “little effect”; that for `O=S(=O)(F)Cc1ccccc1` [PMSF, phenylmethylsulfonyl fluoride], “significantly inactivate; also recorded: significant inhibition”.
Regarding `Cc1ccc(S(=O)(=O)N[C@@H](CCCCN)C(=O)CCl)cc1` [TLCK, N-p-Tosyl-1-lysine chloromethyl ketone], the “effect of inhibitor on thermopsin activity (in words)” value was “much less effective”.
To `Cc1ccc(S(=O)(=O)N[C@@H](Cc2ccccc2)C(=O)CCl)cc1` [TPCK, N-Tosyl-L-phenylalanine chloromethyl ketone] belongs “significantly inactivate; also recorded: significant inhibition”.
